Measured values reported in patent US8841257B2, “Inhibitors of STAT3 and uses thereof” (Board of Regents, The University of Texas System, priority 2009, dated 2014).
“Also recorded” adds a separate entry of the source.

Tests used:
[1] = tested on: SUM149 and MDA-MB-231 cells; assay: In vitro invasion of an artificial basement membrane; format: cell-based, human; conditions: 5 μM in DMSO; 72 hours
Experimental: Effect of prodrugs on in vitro invasion of an artificial basement membrane by human breast cancer cells. SUM149 and MDA-MB-231 cells were trypsinized, resuspended in serum-supplemented medium, and counted. Cells were then washed 3 times with serum-free medium. Plates (6-well) compatible with transwell inserts with 8 μm pore-size polycarbonate filters (Fisher Scientific) were coated with Matrigel in cold serum-free DMEM/F12 at a final concentration of 0.7 mg/mL and held at room temperature for 40 minutes. Cells (in 500 μL serum-free medium) were added into the transwell inserts and incubated for 72 hours in the absence or presence 5 μM prodrug in DMSO (1% by volume). For a control, 10% FBS was used to evaluate the baseline extent of invasion of the different cell lines. After incubation, noninvading cells on the upper surface of the filter were removed with cotton swabs. Cells that had passed through the pores onto the lower side of the filter were fixed, stained with Hema-3 stain (Fisher Scientific), and quantified. The experiments were performed in triplicate and were repeated twice.

STAT3 [2] = biological target: T1, STAT3 (Homo sapiens, UniProt P40763); assay: Inhibition of STAT3 phosphorylation in BT20 breast tumor cells (western blot); format: cell-based; design: endogenous in cells; host or cells: BT20 breast tumor cells; conditions: BT20 time course
Experimental: Inhibition of STAT3 in BT20 Breast Tumor Cells. General procedure: 35 mm petri dishes were plated with 300,000 BT20 cells in 2 mL RPMI1640 media containing 10% FBS, […], streptomycin, and glutamine. Prodrugs were dissolved in DMSO and were added to the cells with fresh media at varying concentrations. After 2 h the cells were washed with ice cold phosphate buffered saline. Washed cells were treated with lysis buffer (50 mM Hepes, pH 7.4, 150 mM NaCl, 1.5 mM MgCl2, 1 mM EGTA, 100 mM NaF, 10 mM sodium pyrophosphate, 10% glycerol, 1% Triton X-100, 1 mM PMSF, 1 mM Na3VO4, 10 μg/mL leupeptin and 10 μg/mL aprotinin). Cell-free detergent extracts were centrifuged at 15,000 rpm in a microcentriguge for 30 min at 4° C. and the protein concentrations of the supernatants determined. Aliquots containing 12 μg of protein were separated on 8% SDS-PAGE and were transferred to PVDF filters. The filters were blocked with 5% bovine serum albumin and were probed with pStat3^Y705 antibody followed by secondary antibody, whose signal was detected with an enhanced chemiluminescence kit (ECL, Amersham, Chicago, Ill.). Filters were stripped with stripping buffer (62.5 mM Tris, pH 6.8, 2% SDS, and 0.1 M 2-mercaptoethanol) at 50° C. for 30 min. Filters were then probed with total Stat3 antibody and visualized with chemiluminescence as above.
Because DMSO is toxic, other formulations were evaluated for potential use in animal models. The compound of Example 1 was dissolved in EtOH, 20% (w/v) Trappsol (hydroxypropyl β-cyclodextran, pharmaceutical grade), or a liposomal formulation to a concentration of 5 mM. These formulations were given to cells at 0.1, 0.5, and 5 μM concentrations. At two hours, cells were lysed and pSTAT3 levels were determined by Western Blot (FIG. 3). Different formulations have little effect on inhibition of STAT3. The compound of Example 1 was dissolved in DMSO, EtOH, Trappsol, or as a 10 mol % mixture in dimyristoylphosphatidyl choline and applied to BT20 cell in culture. After two hours, cells were lysed and pSTAT3 levels determined by Western blot. To prepare liposomes a solution of 1.0 mg of the compound of Example 1, 7.2 mg of DMPC, 0.41 mg of Tween 20 in 1.0 mL of tert-butanol was lyophilized. A control lipid formulation of 7.2 mg of DMPC and 0.41 mg of Tween 20 in 1.0 mL of tert-butanol was lyophilized. These samples were mixed with 236 μL of H2O and were vortexed and sonicated for 5 min.
The compounds are selective for STAT3 over STAT1 in BT20 breast tumor cells. BT20 cells prepared as above and were treated with 5 μM of the compound of Example 1 for two hours then were treated with 25 ng/mL of interferon γ (IFNγ). […] (FIG. 4, bottom panel).
Time course of inhibition of STAT3 phosphorylation in BT20 cells. BT20 cells were plated as above and treated with the compounds from Examples 1 and 6 and western blots were performed at varying time intervals.

[3] = tested on: SUM149 inflammatory breast tumor cells; assay: Anchorage-independent growth in soft agar, SUM149; format: cell-based; conditions: 28 days
Experimental: (§1) Assay for anchorage-independent growth in soft agar Cells (5×10^5) were suspended in 1× DMEM/HEPES, 10% heat-inactivated FBS, 0.13% bicarbonate, and 0.33% BBL agar. The cells were plated on 1% base agar plates (60 mm) containing 1× DMEM/HEPES, 10% heat-inactivated FBS, and 1% BBL agar. Fresh serum-containing medium was fed to the cells on 3-day intervals. The dishes were then incubated at 37° C. with 5% CO2 for 28 days. The colonies that grew in soft agar were photographed and counted. Data are expressed as the number of colonies formed per plate±S.E.M. and three plates were counted per cell line.

[4] = tested on: MDA7, MDA-MB-231, SUM149, and SUM190; assay: Anchorage-independent growth in soft agar, four breast tumor models; format: cell-based; conditions: MDA7, MDA-MB-231, SUM149, SUM190; 28 days
Experimental: as §1

STAT5 = assay: EGF-stimulated STAT5 phosphorylation in MDA-MB-468 cells; format: cell-based, human; conditions: 1.5 hr prodrug, then EGF 100 ng/mL 30 min
Experimental: (§2) Effect of prodrug on the phosphorylation of STAT3, STAT5 and Akt in response to Epidermal Growth Factor stimulation. MDA-MB-468 cells were prepared as above. Prodrugs were prepared as 10 mM stock solutions in DMSO and aliquots were added to the culture media to give the correct final concentrations. After 1.5 hr EGF was added at 100 ng/mL. After 30 minutes cells were collected and lysed and proteins were separated by PAGE and transferred to three PVDF filters as above. The first filter was blocked with 5% bovine serum albumin and probed for total and phosphoStat3 as above. The second filter was probed for phosphoSer473Akt and total Akt using appropriate antibodies and similar detection procedures to those used for STAT3. The third filter was probed for phosphoTyr699 Stat5 and total STAT5 using appropriate antibodies and similar detection procedures to those used for STAT3.

[5] = tested on: Focal Adhesion Kinase (FAK); assay: Phosphorylation of Focal Adhesion Kinase Tyr861 in MDA-MB-468 cells; format: cell-based, human; conditions: 2 hr treatment
Source text: Effect of Prodrug on the phosphorylation of Focal Adhesion Kinase (FAK) in MDA-MB-468 breast tumor cells. MDA-MB-468 cells express constitutive phosphorylation of Tyr861 of FAK (Laird, A. et al., Src Family Kinase Activity is Required For Signal Tranducer and Activator of Transcription 3 and Focal Adhesion Kinase Phosphorylation and Vascular Endothelial Growth Factor Signaling In Vivo and For Anchorage-Dependent and Independent Growth Of Human Tumor Cells, Mol Cancer Ther, 2, 461-9(2003). a unique substrate of Src upon recruitment via its SH2 domain (Calalb, M. B., et al, S. K. Focal adhesion kinase tyrosine-861 is a major site of phosphorylation by Src. Biochem Biophys Res Commun 1996, 228, 662-8 (1996.) To test for cross reactivity to the Src SH2 domain, MDA-MB-468 cell extracts were probed for phosphorylation of Tyr861 of FAK.

STAT3 [6] = biological target: T1, STAT3; assay: EGF-stimulated STAT3 phosphorylation in MDA-MB-468 cells; format: cell-based; design: host or cells: MDA-MB-468 breast tumor cells; conditions: 1.5 hr prodrug, then EGF 100 ng/mL 30 min
Experimental: as §2

STAT1 = biological target: T2, STAT1 (Homo sapiens, UniProt P42224); assay: IFNγ-stimulated STAT1 phosphorylation in MDA-MB-468 cells; format: cell-based; design: host or cells: MDA-MB-468 breast tumor cells
T2 sequence (P42224 1-750): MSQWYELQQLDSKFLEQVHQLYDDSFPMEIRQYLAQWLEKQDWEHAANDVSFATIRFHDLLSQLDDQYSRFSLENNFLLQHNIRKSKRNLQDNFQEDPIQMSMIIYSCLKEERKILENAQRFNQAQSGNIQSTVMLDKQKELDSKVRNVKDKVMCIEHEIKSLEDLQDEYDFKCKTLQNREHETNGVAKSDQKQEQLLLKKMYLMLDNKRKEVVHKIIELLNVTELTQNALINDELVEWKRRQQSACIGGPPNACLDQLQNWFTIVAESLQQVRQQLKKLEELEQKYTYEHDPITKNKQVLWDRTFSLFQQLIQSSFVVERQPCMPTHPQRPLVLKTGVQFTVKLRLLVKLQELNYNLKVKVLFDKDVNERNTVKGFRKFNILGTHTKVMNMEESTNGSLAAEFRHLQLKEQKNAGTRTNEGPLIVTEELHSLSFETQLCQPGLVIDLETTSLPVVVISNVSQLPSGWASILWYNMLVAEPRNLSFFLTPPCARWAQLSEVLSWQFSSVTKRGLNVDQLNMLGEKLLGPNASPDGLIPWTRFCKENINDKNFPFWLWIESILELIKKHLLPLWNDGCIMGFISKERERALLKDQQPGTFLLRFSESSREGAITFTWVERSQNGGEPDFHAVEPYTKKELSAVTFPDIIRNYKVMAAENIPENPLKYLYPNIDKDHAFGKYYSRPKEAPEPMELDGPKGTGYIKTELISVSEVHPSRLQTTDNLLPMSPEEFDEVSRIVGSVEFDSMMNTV
Experimental: Effect of Prodrug on the phosphorylation of STAT1 in MDA-MB-468 breast tumor cells. MDA-MB-468 cells were prepared as above. Prodrugs were prepared as 10 mM stock solutions in DMSO and aliquots were added to the culture media to give the correct final concentrations. After 1.5 hr interferonγ was added at 25 ng/mL. After 30 minutes cells were collected and lysed and proteins were separated by PAGE and transferred to PVDF filters as above. Filters were probed for phosphoTyr701 Stat 1 and total Stat1 using appropriate antibodies and similar detection procedures to those used for Stat3.

Akt = assay: EGF-stimulated Akt Ser473 phosphorylation in MDA-MB-468 cells; format: cell-based, human; conditions: 1.5 hr prodrug, then EGF 100 ng/mL 30 min
Experimental: as §2

STAT3 [7] = biological target: T1, STAT3; assay: Inhibition of Stat3 tyrosine705 phosphorylation in MDA-MB-468 cells; format: cell-based; design: host or cells: MDA-MB-468 breast tumor cells; conditions: 2 h
Experimental: Inhibition of Stat3 tyrosine705 phosphorylation in MDA-MB-468 cells. MDA-MB-468 breast tumor cells (0.4×10^6) were plated onto 35 mm culture dishes and were allowed to grow overnight. Prodrugs were prepared as 10 mM stock solutions in DMSO and aliquots were added to the culture media to give the correct final concentrations. After 2 h the cells were washed with ice cold phosphate buffered saline. Washed cells were treated with lysis buffer (50 mM Hepes, pH 7.4, 150 mM NaCl, 1.5 mM MgCl2, 1 mM EGTA, 100 mM NaF, 10 mM sodium pyrophosphate, 10% glycerol, 1% Triton X-100, 1 mM PMSF, 1 mM Na3VO4, 10 μg/mL leupeptin and 10 μg/mL aprotinin). Cell-free detergent extracts were centrifuged at 15,000 rpm in a microcentriguge for 30 min at 4° C. and the protein concentrations of the supernatants determined. Aliquots containing 12 μg of protein were separated on 8% SDS-PAGE and were transferred to PVDF filters. The filters were blocked with 5% bovine serum albumin and were probed with pStat3^Y705 antibody followed by secondary antibody, whose signal was detected with an enhanced chemiluminescence kit (ECL, Amersham, Chicago, Ill.). Filters were stripped with stripping buffer (62.5 mM Tris, pH 6.8, 2% SDS, and 0.1 M 2-mercaptoethanol) at 50° C. for 30 min. Filters were then probed with total Stat3 antibody and visualized with chemiluminescence as above.

T1 sequence (P40763 whole entry): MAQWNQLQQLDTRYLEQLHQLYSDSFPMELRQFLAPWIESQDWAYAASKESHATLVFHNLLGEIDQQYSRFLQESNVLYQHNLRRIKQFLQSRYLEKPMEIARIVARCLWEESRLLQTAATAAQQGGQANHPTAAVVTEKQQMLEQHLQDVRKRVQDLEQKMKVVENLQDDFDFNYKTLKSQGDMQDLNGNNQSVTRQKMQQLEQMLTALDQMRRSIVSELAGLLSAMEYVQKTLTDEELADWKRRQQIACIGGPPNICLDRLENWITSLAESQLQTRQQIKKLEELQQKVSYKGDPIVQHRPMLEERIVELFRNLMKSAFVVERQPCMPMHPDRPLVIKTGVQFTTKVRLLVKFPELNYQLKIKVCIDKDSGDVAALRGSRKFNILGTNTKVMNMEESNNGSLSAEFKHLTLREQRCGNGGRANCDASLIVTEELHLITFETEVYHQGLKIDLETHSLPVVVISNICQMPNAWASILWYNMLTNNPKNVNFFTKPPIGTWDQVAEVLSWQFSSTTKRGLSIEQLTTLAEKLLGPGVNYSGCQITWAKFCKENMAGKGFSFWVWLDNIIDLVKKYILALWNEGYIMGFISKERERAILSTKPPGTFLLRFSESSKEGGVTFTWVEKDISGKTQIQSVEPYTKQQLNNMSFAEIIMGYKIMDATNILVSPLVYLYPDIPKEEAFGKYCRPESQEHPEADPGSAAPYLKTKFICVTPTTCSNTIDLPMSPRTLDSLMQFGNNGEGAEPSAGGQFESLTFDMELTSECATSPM

Row | Structure (SMILES) | invasion through the artificial basement membrane [1] | effectiveness of phosphate (X=O) relative to difluoromethyl phosphonate Example 1 (X=CF2) (STAT3 [2]) | colony formation in soft agar [3] | colony formation in soft agar, four breast tumor models [4] | Stat5 phosphorylation after EGF (STAT5) | phosphorylation of FAK Tyr861 [5] | EGF-induced increase in Stat3 phosphorylation (STAT3 [6]) | inhibition of Stat1 phosphorylation compared with Stat3 phosphorylation (STAT1; 1.5 hr prodrug, then interferonγ 25 ng/mL 30 min) | fold less potent at inhibiting STAT1 than STAT3 (STAT1; MDA-MB-468 cells) | Akt Ser473 phosphorylation after EGF (Akt) | concentration as low as which partial inhibition of STAT3 phosphorylation was seen (STAT3 [7]) [nM] | concentration at which complete inhibition of STAT3 phosphorylation occurred (STAT3 [7]) [nM] | inhibition of Tyr705 phosphorylation of Stat3 (potency in words) (STAT3 [7]; prodrug in DMSO)
1 | C/C(=C\C(=O)N[C@H]1CCc2cccc3c2N(C1=O)[C@H](C(=O)N[C@H](C)CCC(N)=O)C3)c1ccc(C(F)(F)P(=O)(Oc2ccccc2)Oc2ccccc2)cc1 [Example 8, (E)-3-[4-[(Diphenoxyphosphinyl)difluoromethyl]phenyl]-but-2-enoyl-Haic-(R)-4-aminopentamide] | inhibited invasion | as effective as | inhibition of colony formation | inhibition |  |  |  |  |  |  |  |  | 
2 | CCCC[C@H](NC(=O)/C=C(\C)c1ccc(C(F)(F)P(=O)(OCOC(=O)C(C)(C)C)OCOC(=O)C(C)(C)C)cc1)C(=O)N1C[C@H]2CC2[C@H]1C(=O)N[C@H](C)CCC(N)=O (stereo partly drawn) [Example 18, (2E)-3-[4-[[bis[(2,2-dimethyl-1-oxopropoxy)methoxy]phosphinyl]difluoromethyl]phenyl]-but-2-enoyl-norleucinyl-(2S,3R,4S)-methanoprolinyl-(R)-4-aminopentamide] |  |  |  |  | no effect | no reduction; also recorded: do not inhibit | effective at inhibiting | less effective | about 10 fold | no effect | 10 | 500 | very potent inhibitors; also recorded: inhibit phosphorylation of STAT3
